Test results from patent publication US10168342B2, “Lipid probes and uses thereof” (THE SCRIPPS RESEARCH INSTITUTE, priority 2015, dated 2019).
Like-named read-outs stand apart in the source and are kept apart here.

Key:
[1] = molecular target: AEA-DA lipid probe targets in Neuro2a cells (Mus musculus, UniProt O35129)
[2] = molecular target: T1, AEA-DA lipid probe targets in Neuro2a cells (Mus musculus, UniProt Q5XKN4)
T1 sequence (Q5XKN4 1-183): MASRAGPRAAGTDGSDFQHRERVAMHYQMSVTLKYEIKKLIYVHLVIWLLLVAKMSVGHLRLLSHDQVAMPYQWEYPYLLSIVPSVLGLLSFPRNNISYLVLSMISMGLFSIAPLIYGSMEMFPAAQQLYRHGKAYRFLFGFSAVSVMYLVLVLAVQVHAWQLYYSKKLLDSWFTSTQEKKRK

[3] = molecular target: T2, AEA-DA lipid probe targets in Neuro2a cells (Mus musculus, UniProt Q6GV12)
T2 sequence (Q6GV12 26-332): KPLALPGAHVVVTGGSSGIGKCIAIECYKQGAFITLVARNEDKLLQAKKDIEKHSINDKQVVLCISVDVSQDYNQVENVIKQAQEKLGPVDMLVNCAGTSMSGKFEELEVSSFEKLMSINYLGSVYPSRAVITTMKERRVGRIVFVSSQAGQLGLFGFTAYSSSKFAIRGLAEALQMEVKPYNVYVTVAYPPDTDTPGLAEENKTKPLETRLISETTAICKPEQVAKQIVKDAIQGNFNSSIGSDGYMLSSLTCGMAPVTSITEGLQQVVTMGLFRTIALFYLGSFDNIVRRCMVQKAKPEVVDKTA

[4] = molecular target: AEA-DA lipid probe targets in Neuro2a cells (Mus musculus, UniProt Q8BUV8)
Sequence of AEA-DA lipid probe targets in Neuro2a cells (Mus musculus, UniProt Q8BUV8) (Q8BUV8 34-551): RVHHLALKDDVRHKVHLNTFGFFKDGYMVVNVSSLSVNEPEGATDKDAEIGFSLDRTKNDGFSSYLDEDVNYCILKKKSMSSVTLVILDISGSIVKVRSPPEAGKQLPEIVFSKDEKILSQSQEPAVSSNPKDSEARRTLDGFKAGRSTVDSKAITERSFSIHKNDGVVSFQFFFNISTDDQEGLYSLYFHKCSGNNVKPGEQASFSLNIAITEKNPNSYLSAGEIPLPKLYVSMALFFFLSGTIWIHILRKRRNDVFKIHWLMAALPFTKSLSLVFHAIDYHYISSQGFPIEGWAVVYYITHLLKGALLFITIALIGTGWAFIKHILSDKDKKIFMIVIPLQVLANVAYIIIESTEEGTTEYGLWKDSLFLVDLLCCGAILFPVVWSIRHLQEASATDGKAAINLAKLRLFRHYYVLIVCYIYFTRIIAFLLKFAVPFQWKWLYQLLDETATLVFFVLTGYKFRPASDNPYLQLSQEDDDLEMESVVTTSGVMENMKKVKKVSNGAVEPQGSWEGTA

[5] = molecular target: T3, AEA-DA lipid probe targets in Neuro2a cells (Mus musculus, UniProt Q8R0X7); settings: for SILAC ratio, SGPL1 (O95470): Neuro2a cells, AEA-DA probe
T3 sequence (Q8R0X7 1-568): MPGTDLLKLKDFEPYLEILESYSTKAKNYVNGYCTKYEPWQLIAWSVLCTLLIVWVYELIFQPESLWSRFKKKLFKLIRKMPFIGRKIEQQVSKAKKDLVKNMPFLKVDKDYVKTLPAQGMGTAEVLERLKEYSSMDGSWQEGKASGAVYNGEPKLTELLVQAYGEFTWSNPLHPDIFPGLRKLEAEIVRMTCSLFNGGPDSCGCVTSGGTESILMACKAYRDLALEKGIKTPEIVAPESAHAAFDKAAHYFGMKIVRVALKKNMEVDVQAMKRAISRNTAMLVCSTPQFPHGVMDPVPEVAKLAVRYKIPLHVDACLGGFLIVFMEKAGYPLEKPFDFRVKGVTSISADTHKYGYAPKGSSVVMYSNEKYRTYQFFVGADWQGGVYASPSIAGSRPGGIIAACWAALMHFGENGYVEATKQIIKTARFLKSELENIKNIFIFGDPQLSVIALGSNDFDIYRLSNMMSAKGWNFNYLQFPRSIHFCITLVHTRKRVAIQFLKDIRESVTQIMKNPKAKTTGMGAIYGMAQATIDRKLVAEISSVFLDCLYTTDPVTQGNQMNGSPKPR

[6] = molecular target: AEA-DA lipid probe targets in Neuro2a cells (Mus musculus, UniProt Q8VDN2)
[7] = molecular target: T4, AEA-DA lipid probe targets in Neuro2a cells (Mus musculus, UniProt Q91X78)
T4 sequence (Q91X78 1-348): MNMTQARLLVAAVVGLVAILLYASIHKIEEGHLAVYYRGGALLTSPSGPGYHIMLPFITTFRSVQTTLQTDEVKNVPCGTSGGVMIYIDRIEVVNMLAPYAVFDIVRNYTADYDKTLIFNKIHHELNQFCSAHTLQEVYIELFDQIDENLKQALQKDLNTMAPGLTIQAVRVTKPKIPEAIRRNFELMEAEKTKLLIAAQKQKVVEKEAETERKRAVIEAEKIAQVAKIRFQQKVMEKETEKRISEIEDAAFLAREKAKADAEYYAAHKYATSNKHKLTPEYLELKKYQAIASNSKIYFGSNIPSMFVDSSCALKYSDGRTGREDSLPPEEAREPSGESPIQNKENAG

[8] = molecular target: AEA-DA lipid probe targets in Neuro2a cells (Mus musculus, UniProt Q91XC9)
Sequence of AEA-DA lipid probe targets in Neuro2a cells (Mus musculus, UniProt Q91XC9) (Q91XC9 whole entry): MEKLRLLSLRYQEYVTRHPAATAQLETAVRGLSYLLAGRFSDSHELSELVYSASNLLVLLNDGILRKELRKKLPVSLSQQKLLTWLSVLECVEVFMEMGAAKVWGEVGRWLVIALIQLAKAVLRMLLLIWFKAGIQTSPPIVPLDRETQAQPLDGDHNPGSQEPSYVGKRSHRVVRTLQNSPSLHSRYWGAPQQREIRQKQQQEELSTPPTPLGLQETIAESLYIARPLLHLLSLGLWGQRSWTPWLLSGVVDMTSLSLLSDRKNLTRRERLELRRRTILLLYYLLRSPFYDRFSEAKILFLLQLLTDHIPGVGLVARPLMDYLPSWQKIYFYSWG

[9] = molecular target: T5, AEA-DA lipid probe targets in Neuro2a cells (Mus musculus, UniProt Q9ES97)
T5 sequence (Q9ES97 1-964): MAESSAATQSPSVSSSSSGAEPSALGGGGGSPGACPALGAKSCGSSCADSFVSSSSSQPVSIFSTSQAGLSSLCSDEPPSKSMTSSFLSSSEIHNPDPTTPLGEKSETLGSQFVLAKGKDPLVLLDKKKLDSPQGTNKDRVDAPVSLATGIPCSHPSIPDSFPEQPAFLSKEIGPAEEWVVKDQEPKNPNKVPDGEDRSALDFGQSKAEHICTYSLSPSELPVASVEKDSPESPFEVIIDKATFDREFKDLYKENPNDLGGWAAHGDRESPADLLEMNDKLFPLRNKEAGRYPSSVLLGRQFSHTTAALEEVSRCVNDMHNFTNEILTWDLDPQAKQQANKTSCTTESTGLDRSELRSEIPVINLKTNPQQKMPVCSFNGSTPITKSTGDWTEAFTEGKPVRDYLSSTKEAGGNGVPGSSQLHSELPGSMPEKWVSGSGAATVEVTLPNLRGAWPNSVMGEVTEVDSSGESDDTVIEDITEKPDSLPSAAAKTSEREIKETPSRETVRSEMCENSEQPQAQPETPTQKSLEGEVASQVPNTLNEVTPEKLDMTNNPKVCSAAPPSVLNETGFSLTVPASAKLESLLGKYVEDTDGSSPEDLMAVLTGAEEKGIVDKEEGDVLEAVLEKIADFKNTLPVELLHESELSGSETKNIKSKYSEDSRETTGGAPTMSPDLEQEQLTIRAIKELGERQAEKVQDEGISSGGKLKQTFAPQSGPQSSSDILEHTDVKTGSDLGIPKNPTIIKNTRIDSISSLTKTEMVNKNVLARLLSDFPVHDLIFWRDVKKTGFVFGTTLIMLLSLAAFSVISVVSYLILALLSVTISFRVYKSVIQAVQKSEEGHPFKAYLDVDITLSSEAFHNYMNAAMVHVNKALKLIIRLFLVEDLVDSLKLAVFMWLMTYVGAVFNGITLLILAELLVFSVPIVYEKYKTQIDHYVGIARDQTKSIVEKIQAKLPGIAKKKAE

Sequence of AEA-DA lipid probe targets in Neuro2a cells (Mus musculus, UniProt O35129) (O35129 whole entry): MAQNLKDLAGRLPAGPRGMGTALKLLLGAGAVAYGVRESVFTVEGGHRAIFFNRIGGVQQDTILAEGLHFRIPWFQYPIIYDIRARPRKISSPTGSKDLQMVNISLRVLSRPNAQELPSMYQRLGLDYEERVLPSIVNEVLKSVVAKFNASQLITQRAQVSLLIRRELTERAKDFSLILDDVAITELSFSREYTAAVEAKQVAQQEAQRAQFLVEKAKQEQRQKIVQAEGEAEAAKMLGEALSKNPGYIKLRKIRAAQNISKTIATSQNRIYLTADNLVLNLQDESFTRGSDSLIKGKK

With `CCCCC/C=C\C/C=C\C/C=C\C/C=C\CCCC(=O)NCCO` [AEA, anandamide, reference compound] the “SILAC ratio Phb2” value ([1]; competitor 200 μM) was 1.2, the “SILAC ratio, Jagn1” value ([2]; competitor 200 μM) was 2.1 and the “SILAC ratio, Kdsr” value ([3]; competitor 200 μM) was 3.6. For the same compound, the “SILAC ratio, Gpr107” value ([4]; competitor 200 μM) was 1.6, the “SILAC ratio, SGPL1 (O95470)” value ([5]; competitor 200 μM) was 2.7 and the “SILAC ratio, Sgpl1” value ([5]; competitor 200 μM) was 2.7. For the same compound, the “SILAC ratio Atp1a1” value ([6]; competitor 200 μM) was 1.4, the “SILAC ratio Erlin1” value ([7]; competitor 200 μM) was 1.7 and the “SILAC ratio, Pex16” value ([8]; competitor 200 μM) was 1.7. The “SILAC ratio, Rtn3” value ([9]; competitor 200 μM) was 2.7.
For `O=C(/C=C/c1cccnc1)NCCCCC1CCN(C(=O)c2ccccc2)CC1` [FK-866, reference compound], the “SILAC ratio Phb2” value ([1]; competitor 25 μM) was 1.1, the “SILAC ratio, Jagn1” value ([2]; competitor 25 μM) was 1.1 and the “SILAC ratio, Kdsr” value ([3]; competitor 25 μM) was 1.1. For the same compound, the “SILAC ratio, Gpr107” value ([4]; competitor 25 μM) was 1.0, the “SILAC ratio, SGPL1 (O95470)” value ([5]; competitor 25 μM) was 1.7 and the “SILAC ratio, Sgpl1” value ([5]; competitor 25 μM) was 1.7. For the same compound, the “SILAC ratio Atp1a1” value ([6]; competitor 25 μM) was 1.2, the “SILAC ratio Erlin1” value ([7]; competitor 25 μM) was 1.0 and the “SILAC ratio, Pex16” value ([8]; competitor 25 μM) was 1.1. The “SILAC ratio, Rtn3” value ([9]; competitor 25 μM) was 1.1.
For `CN1CCN(C(=O)c2c(-c3ccccc3)c3cc([N+](=O)[O-])ccc3n2C)CC1` [KML110, (1-Methyl-5-nitro-3-phenyl-1H-indol-2-yl)(4-methylpiperazin-1-yl)methanone], the “SILAC ratio Phb2” value ([1]; competitor 25 μM) was 1.3, the “SILAC ratio, Jagn1” value ([2]; competitor 25 μM) was 1.5 and the “SILAC ratio, Kdsr” value ([3]; competitor 25 μM) was 1.6. For the same compound, the “SILAC ratio, Gpr107” value ([4]; competitor 25 μM) was 1.5, the “SILAC ratio, Sgpl1” value ([5]; competitor 25 μM) was 1.4 and the “SILAC ratio Atp1a1” value ([6]; competitor 25 μM) was 1.2. For the same compound, the “SILAC ratio, Pex16” value ([8]; competitor 25 μM) was 1.4 and the “SILAC ratio, Rtn3” value ([9]; competitor 25 μM) was 1.3.
With `CN1CCN(C(=O)c2[nH]c3ccc([N+](=O)[O-])cc3c2-c2ccccc2)CC1` [MJN228, (4-Methylpiperazin-1-yl)(5-nitro-3-phenyl-1H-indol-2-yl)methanone] the “SILAC ratio Phb2” value ([1]; competitor 10 μM) was 1.3, the “SILAC ratio Phb2” value ([1]; competitor 25 μM) was 1.2 and the “SILAC ratio Phb2” value ([1]; competitor 50 μM) was 1.4. For the same compound, the “SILAC ratio Phb2” value ([1]; competitor 100 μM) was 1.5, the “SILAC ratio, Jagn1” value ([2]; competitor 10 μM) was 1.2 and the “SILAC ratio, Jagn1” value ([2]; competitor 25 μM) was 1.4. The “SILAC ratio, Jagn1” value ([2]; competitor 50 μM) was 1.6, the “SILAC ratio, Jagn1” value ([2]; competitor 100 μM) was 2.1 and the “SILAC ratio, Kdsr” value ([3]; competitor 10 μM) was 1.1. For the same compound, the “SILAC ratio, Kdsr” value ([3]; competitor 25 μM) was 1.5, the “SILAC ratio, Kdsr” value ([3]; competitor 50 μM) was 1.3 and the “SILAC ratio, Kdsr” value ([3]; competitor 100 μM) was 1.7. The “SILAC ratio, Gpr107” value ([4]; competitor 10 μM) was 1.1, the “SILAC ratio, Gpr107” value ([4]; competitor 25 μM) was 1.3 and the “SILAC ratio, Gpr107” value ([4]; competitor 50 μM) was 2.1. The “SILAC ratio, Gpr107” value ([4]; competitor 100 μM) was 2.9, the “SILAC ratio, SGPL1 (O95470)” value ([5]; competitor 25 μM) was 1.5 and the “SILAC ratio, Sgpl1” value ([5]; competitor 10 μM) was 1.3. For the same compound, the “SILAC ratio, Sgpl1” value ([5]; competitor 25 μM) was 1.5, the “SILAC ratio, Sgpl1” value ([5]; competitor 50 μM) was 1.8 and the “SILAC ratio, Sgpl1” value ([5]; competitor 100 μM) was 2.7. The “SILAC ratio Atp1a1” value ([6]; competitor 10 μM) was 1.4, the “SILAC ratio Atp1a1” value ([6]; competitor 25 μM) was 1.4 and the “SILAC ratio Atp1a1” value ([6]; competitor 50 μM) was 1.1. For the same compound, the “SILAC ratio Atp1a1” value ([6]; competitor 100 μM) was 1.2, the “SILAC ratio Erlin1” value ([7]; competitor 10 μM) was 1.4 and the “SILAC ratio Erlin1” value ([7]; competitor 25 μM) was 1.1. The “SILAC ratio Erlin1” value ([7]; competitor 100 μM) was 1.1, the “SILAC ratio, Pex16” value ([8]; competitor 10 μM) was 0.9 and the “SILAC ratio, Pex16” value ([8]; competitor 25 μM) was 1.5. The “SILAC ratio, Pex16” value ([8]; competitor 50 μM) was 2.3, the “SILAC ratio, Pex16” value ([8]; competitor 100 μM) was 2.2 and the “SILAC ratio, Rtn3” value ([9]; competitor 10 μM) was 1.2. For the same compound, the “SILAC ratio, Rtn3” value ([9]; competitor 25 μM) was 1.4, the “SILAC ratio, Rtn3” value ([9]; competitor 50 μM) was 1.4 and the “SILAC ratio, Rtn3” value ([9]; competitor 100 μM) was 1.7.
For `C=CCN(C)CCCCCCOc1ccc(C(=O)c2ccc(Br)cc2)c(F)c1` [Ro 48-8071, reference compound], the “SILAC ratio Phb2” value ([1]; competitor 25 μM) was 0.9, the “SILAC ratio, Jagn1” value ([2]; competitor 25 μM) was 1.0 and the “SILAC ratio, Kdsr” value ([3]; competitor 25 μM) was 1.6. For the same compound, the “SILAC ratio, Gpr107” value ([4]; competitor 25 μM) was 1.8, the “SILAC ratio, SGPL1 (O95470)” value ([5]; competitor 25 μM) was 1.2 and the “SILAC ratio, Sgpl1” value ([5]; competitor 25 μM) was 1.2. The “SILAC ratio Atp1a1” value ([6]; competitor 25 μM) was 1.0, the “SILAC ratio Erlin1” value ([7]; competitor 25 μM) was 1.2 and the “SILAC ratio, Pex16” value ([8]; competitor 25 μM) was 1.3. For the same compound, the “SILAC ratio, Rtn3” value ([9]; competitor 25 μM) was 1.2.
